Tests used:
[1] = system: methicillin-resistant Staphylococcus aureus (MRSA); experiment: Determination of MIC values (BHI broth, 96 well microtiter plate); format: cell-based; details: Staphylococcus aureus, MRSA, 16 h, BHI broth, 37° C., overnight (about 16 hours); read-out: MIC MRSA
Method: (§1) Stock solutions of compounds are prepared with a concentration of 10 mg/mL. These solutions are then diluted 1:4 to give a concentration of 2.5 mg/mL. The compounds are then serially diluted 1:2 for 6 iterations. The concentrations made for each compound are 2.5, 1.25, 0.625, 0.3125, 0.156, 0.078, and 0.039 mg/mL. A control sample (no compound) is run along with each compound tested. All dilutions are made in DMSO.
(§2) All wells of a 96 well microtiter plate are filled with 100 μL of BHI (Brain-Heart Infusion) broth. Columns on the plate are labeled 1-12, and rows are labeled A-H. Each column of wells is used to test one series of diluted compounds. Into each well of 100 μL of BHI broth, 1 μL of diluted compound is placed for a 1:100 dilution. This makes the final concentration of each drug series 25, 12.5, 6.25, 3.125, 1.56, 0.78, 0.39, and 0 μg/mL.
(§3) Test Organism: A sterile 15 mL screw cap tube is filled wth 3 mL of BHI broth. Next, 2-3 colonies of test organism are inoculated into the tube. The tube is then incubated at 37° C. in a CO2 (approx. 7%) atmosphere jar. The organisms are allowed to grow to the density of a 0.5 McFarland standard (10^8 cells/mL). The organism is then inoculated into each well of the microtiter plate containing the diluted compounds to be tested for MIC. The inoculum is 1 μL in volume and represents 10^5 to 10^6 cells/mL.
(§4) After inoculation the plates are covered and incubated at 37° C. and approx. 7-10% CO2 atmosphere overnight (about 16 hours). The plates are then observed for growth, the well with the lowest concentration of drug and no observable growth represents the well determining the MIC.

[2] = system: vancomycin-resistant Enterococcus spp. (VRE); experiment: as above; format: cell-based; details: Enterococcus, VRE, 16 h, BHI broth, 37° C., overnight (about 16 hours); read-out: MIC VREF
Method: as §1, §2, §3, §4

| Structure (SMILES) | MIC [1] [µg/mL] | MIC [2] [µg/mL] |
| --- | --- | --- |
| NCCCN1CCN(CCCNC(=O)c2cc(-c3c[nH]c4ccc(Br)cc34)nc3ccc(I)cc23)CC1 [Example 70] | < 7 | < 25 |
| NCC(=O)NCc1ccc(CNC(=O)c2cc(-c3c[nH]c4ccc(Br)cc34)nc3ccccc23)cc1 [Example 71] | < 25 | > 25 |
| NCCC(=O)NCc1ccc(CNC(=O)c2cc(-c3c[nH]c4ccc(Br)cc34)nc3ccccc23)cc1 [Example 72] | > 25 | > 25 |
| N[C@H](Cc1c[nH]cn1)C(=O)NCc1ccc(CNC(=O)c2cc(-c3c[nH]c4ccc(Br)cc34)nc3ccccc23)cc1 [Example 73] | < 25 | < 25 |
| NCc1ccc(CNC(=O)c2cc(-c3c[nH]c4ccc(Br)cc34)nc3ccc(C#CCN4CCOCC4)cc23)cc1 [Example 74] | < 7 | < 25 |
| NCc1ccc(CNC(=O)c2cc(-c3c[nH]c4ccc(Br)cc34)nc3ccc(C#CCN4CCC(Cc5ccccc5)CC4)cc23)cc1 [Example 75] | > 25 | > 25 |
| O=C(O)c1cc(-c2c[nH]c3cccc(F)c23)nc2ccccc12 [Example 77] | > 25 | > 25 |
| O=C(O)c1cc(-c2c[nH]c3cc(F)ccc23)nc2ccccc12 [Example 78] | > 25 | > 25 |
| NCc1ccc(CNC(=O)c2cc(-c3c[nH]c4cccc(F)c34)nc3ccccc23)cc1 [Example 79] | > 25 | > 25 |
| NCc1ccc(CNC(=O)c2cc(-c3c[nH]c4cc(F)ccc34)nc3ccccc23)cc1 [Example 80] | < 25 | < 25 |
| NCc1ccc(CNC(=O)c2cc(-c3ccccc3)nc3ccccc23)cc1 [Example 81] | > 25 | > 25 |
| NCc1ccc(CNC(=O)c2cc(-c3ccoc3)nc3ccccc23)cc1 [Example 82] | > 25 | > 25 |
| NCc1ccc(CNC(=O)c2cc(-c3ccsc3)nc3ccc(Br)cc23)cc1 [Example 83] | > 25 | > 25 |
| NCc1ccc(CNC(=O)c2cc(-c3cccnc3)nc3ccc(Br)cc23)cc1 [Example 84] | < 7 | < 25 |
| O=C(NCc1ccc(CNC(=O)c2cc(-c3c[nH]c4ccc(Br)cc34)nc3ccccc23)cc1)Nc1ccc(C(F)(F)F)cc1 [Example 85] | < 7 | < 25 |
| Cn1ccc(-c2cc(C(=O)NCc3ccc(CN)cc3)c3ccccc3n2)c1 [Example 86] | > 25 | > 25 |
| NCc1ccc(CNC(=O)c2cc(-c3ccc4ccccc4c3)nc3ccccc23)cc1 [Example 87] | < 25 | < 25 |
| N=C(N)NCCC[C@H](NC(=O)c1cc(-c2c[nH]c3ccc(Br)cc23)nc2ccccc12)C(=O)O [Example 88] | > 25 | > 25 |
| O=C(NCc1ccc(CNC(=O)c2cc(-c3c[nH]c4ccc(Br)cc34)nc3ccccc23)cc1)Nc1cc(C(F)(F)F)cc(C(F)(F)F)c1 [Example 90] | < 25 | < 7 |
| NCc1ccc(CNC(=O)C2CC(c3c[nH]c4ccccc34)Nc3ccccc32)cc1 (centres unmarked) [Example 91] | > 25 | > 25 |

| Structure (SMILES) | MIC [1] [µg/mL] | MIC [2] [µg/mL] |
| --- | --- | --- |
| CN(C)Cc1ccc(CNC(=O)c2cc(-c3c[nH]c4ccc(Br)cc34)nc3ccccc23)cc1 [Example 92] | < 25 | < 25 |
| NCc1ccc(CNC(=O)c2cc(-c3ccccn3)nc3ccccc23)cc1 [Example 93] | > 25 | > 25 |
| NCc1ccc(CNC(=O)c2cc(-c3ccncc3)nc3ccc(Br)cc23)cc1 [Example 94] | > 25 | > 25 |
| Cc1ccc2nc(-c3ccncc3)cc(C(=O)NCc3ccc(CN)cc3)c2c1 [Example 95] | > 25 | > 25 |
| COc1cc2nc(-c3c[nH]c4ccc(Br)cc34)cc(C(=O)NCc3ccc(CN)cc3)c2cc1OC [Example 98] | < 25 | < 25 |
| NCc1ccc(CNC(=O)c2cc(-c3c[nH]c4ccc(Br)cc34)nc3ccc(CO)cc23)cc1 [Example 100] | > 25 | > 25 |
| NCc1ccc(CNC(=O)c2cc(-c3c[nH]c4ccc(Br)cc34)nc3ccc(C#Cc4ccccc4)cc23)cc1 [Example 101] | < 7 | < 7 |
| COC(=O)c1ccc2nc(-c3c[nH]c4ccc(Br)cc34)cc(C(=O)NCc3ccc(CN)cc3)c2c1 [Example 105] | > 25 | < 25 |
| NC1CCC(NC(=O)c2cc(-c3c[nH]c4ccc(Br)cc34)nc3ccccc23)CC1 (centres unmarked) [Example 106] | < 25 | < 25 |
| NCc1ccc(CNC(=O)c2cc(-c3c[nH]c4ccc(Br)cc34)nc3ccc(Br)cc23)cc1 [Example 120] | < 7 | < 7 |
| NCc1ccc(CNC(=O)c2cc(-c3c[nH]c4ccc(Br)cc34)nc3ccc(Cl)cc23)cc1 [Example 121] | < 7 | < 7 |
| NCc1cccc(CNC(=O)c2cc(-c3c[nH]c4ccc(Br)cc34)nc3ccc(Br)cc23)c1 [Example 125] | < 7 | < 7 |
| O=C(c1cc(-c2c[nH]c3ccc(Br)cc23)nc2ccc(Br)cc12)N1CCCNCC1 [Example 126] | < 7 | < 7 |
| Cc1cc2nc(-c3c[nH]c4ccc(Br)cc34)cc(C(=O)NCc3cccc(CN)c3)c2cc1C [Example 129] | < 7 | < 7 |
| Cc1cc2nc(-c3c[nH]c4ccc(Br)cc34)cc(C(=O)N3CCCNCC3)c2cc1C [Example 130] | < 7 | < 7 |
| O=C(c1cc(-c2c[nH]c3ccc(Br)cc23)nc2ccc(Cl)cc12)N1CCCNCC1 [Example 135] | < 7 | < 7 |
| NC(=O)c1cc(-c2c[nH]c3ccc(Br)cc23)nc2ccc(C#CCN3CCCCC3)cc12 [Example 137] | < 25 | < 25 |
| NCc1ccc(CNC(=O)c2cc(-c3csc4ccc(Cl)cc34)nc3ccc(I)cc23)cc1 [Example 140] | > 25 | < 25 |
| O=C(O)c1cc(-c2c[nH]c3ccc(Br)cc23)nc2c(Cl)cccc12 [Example 141] | > 25 | > 25 |
| NC(=O)C(Cc1ccc2ccccc2c1)NC(=O)c1cc(-c2c[nH]c3ccccc23)nc2ccccc12 (centres unmarked) [Example 145] | < 7 | < 25 |

| Structure (SMILES) | MIC [1] [µg/mL] | MIC [2] [µg/mL] |
| --- | --- | --- |
| Cc1ccc2[nH]cc(-c3cc(C(=O)NC(Cc4ccc5ccccc5c4)C(N)=O)c4ccccc4n3)c2c1 (centres unmarked) [Example 146] | < 7 | < 25 |
| NC(=O)C(Cc1ccc2ccccc2c1)NC(=O)c1cc(-c2c[nH]c3ccc(Cl)cc23)nc2ccccc12 (centres unmarked) [Example 147] | < 7 | < 7 |
| NC(=O)C(Cc1ccc([N+](=O)[O-])cc1)NC(=O)c1cc(-c2c[nH]c3ccc(Cl)cc23)nc2ccccc12 (centres unmarked) [Example 148] | < 7 | < 25 |
| NC(=O)C(Cc1ccc([N+](=O)[O-])cc1)NC(=O)c1cc(-c2c[nH]c3ccc(Br)cc23)nc2ccccc12 (centres unmarked) [Example 149] | < 7 | > 25 |
| NCc1ccc(CNC(=O)c2cc(-c3c[nH]c4ccc(Br)cc34)nc3cc4c(cc23)OCCO4)cc1 [Example 150] | > 25 | > 25 |
| Cc1c(-c2c[nH]c3ccc(Br)cc23)nc2ccc(I)cc2c1C(=O)NCc1ccc(CN)cc1 [Example 152] | < 7 | < 25 |
| O=C(O)c1cc(-c2c[nH]c3ccccc23)nc2ccc(I)cc12 [Example 155] | > 25 | > 25 |
| O=C(O)c1cc(-c2c[nH]c3ccccc23)nc2c(Cl)cccc12 [Example 156] | > 25 | > 25 |
| CC(C)(C)OC(=O)n1cc(-c2cc(C(=O)O)c3cccnc3n2)c2cc(Br)ccc21 [Example 157] | > 25 | > 25 |
| NCc1ccc(CNC(=O)c2cc(-c3c[nH]c4ccccc34)nc3c(Cl)cccc23)cc1 [Example 160] | < 25 | < 25 |
| NCc1ccc(CNC(=O)c2cc(-c3c[nH]c4ccc(Br)cc34)nc3ncccc23)cc1 [Example 162] | > 25 | > 25 |
| NCc1cccc(CNC(=O)c2cc(-c3ccsc3)nc3ccc(Br)cc23)c1 [Example 166] | > 25 | > 25 |
| Cn1cc(-c2ccc3cc(Cl)ccc3n2)c2cc(Br)ccc21 [Example 167] | > 25 | > 25 |
| Cn1cc(-c2ccc3ccccc3n2)c2ccccc21 [Example 176] | > 25 | > 25 |
| Cn1cc(-c2ccc3ccccc3n2)c2cc(Cl)ccc21 [Example 177] | > 25 | > 25 |
| Cn1cc(-c2ccc3ccccc3n2)c2cc(Br)ccc21 [Example 178] | > 25 | > 25 |
| Cn1cc(-c2ccc3cc(Cl)ccc3n2)c2ccccc21 [Example 179] | > 25 | > 25 |
| Cn1cc(-c2ccc3cc(Cl)ccc3n2)c2cc(Cl)ccc21 [Example 180] | > 25 | > 25 |

Reference: patent US6376670B1, “Quinoline-indole antimicrobial agents, uses and compositions related thereto” (Sepracor Inc., priority 1997, dated 2002)
